Here are results for two compounds from the NIST ThermoML archive (doi:10.1021/je8002223).

A short description of data set [1]: Molar enthalpy of transition or fusion.
The conditions of data set [2]: DTA.

Numbers after ± are expanded uncertainties.

As to `[Cl][Ce]([Cl])[Cl]` [cerium trichloride], the “Molar enthalpy of transition or fusion” value in data set [1] (Crystal) worked out at 13.3 ± 1.43 kcal/mol. In addition, the Normal melting temperature in data set [2] (Crystal) is 813 ± 2 °C.

Turning to `[Cl-].[Cs+]` [cesium chloride], the “Molar enthalpy of transition or fusion” value in data set [1] (Crystal 1) came out at 4.85 ± 0.574 kcal/mol; in data set [1] (Crystal 2), 0.908 ± 0.191 kcal/mol. For the same compound, the values for the Triple point temperature in data set [2] (Crystal 1) and in data set [2] (Crystal 2) were 918 ± 2 K and 743 ± 2 K, respectively.
